Measurements as given in patent US9499711B2, “Treatment liquid and recording method” (Seiko Epson Corporation, priority 2014, dated 2016).
Like-named read-outs stand apart in the source and are kept apart here.

Test: physchem

Row | logP (logP value of organic compound) | logP (log P value) | Structure (SMILES) | logP
1 |  |  | CCCCCO [1-pentanol] | 1.4
2 | 1.6 |  | CCCC(O)C(CC)CO (centres unmarked) [2-Ethyl-1,3-hexane diol] | 
3 |  | 0.16 | CC(C)(O)CCO [3-methyl-1,3-butanediol] | 
4 | 0.6 | 0.87 | CCCOC(C)COC(C)CO (centres unmarked) [Dipropylene glycol monopropyl ether] | 
5 | -2.75 |  | CCOCCOCCOCCO [Triethylene glycol monoethyl ether] | 
6 |  | 0.39 | CCOCCOCCOCC [diethylene glycol diethyl ether] | 
7 |  | 0.56 | CCCCOCCOCCO [diethylene glycol monobutyl ether] | 
8 |  | 1.7 | CCCCCCOCCOCCO [diethylene glycol monohexyl ether] | 
9 |  | 1.7 | CCCCCCOCCO [ethylene glycol monohexyl ether] | 
10 |  | 1.15 | CCCCOCC(C)O (centres unmarked) [propylene glycol monobutyl ether] | 
11 |  | 0.3 | CCOCC(C)O (centres unmarked) [propylene glycol monoethyl ether] | 
12 |  | 0.62 | CCCOCC(C)O (centres unmarked) [propylene glycol monopropyl ether] | 
13 |  | 1.34 | CCCCOC(C)COC(C)COC(C)CO (centres unmarked) [tripropylene glycol monobutyl ether] | 
